This is an account of results in PubChem BioAssay (NCI).

“And” between values parts separate entries of the source, which are not always exact repeats. Identical values can stand only once.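 1) Cells in 96-well plates. 2) Compound, 48 h, 5 concentrations. 3) Linear interpolation between surrounding doses. 4) Unreached endpoint = highest concentration. GI50 is the concentration that inhibits growth by half. TGI marks complete inhibition of growth.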

Some test systems named below: 786-0 renal; MDA-MB-435; SK-MEL-5 melanoma; IGROV1 ovarian; K-562 leukemia; HT29 colon; RXF 393 renal; HCC-2998 colon; OVCAR-3 ovarian; SF-295 CNS.
Test in all cases: inhibition of tumour cell growth, NCI panel, 48 h

As to `FC(F)(F)c1cccc(Nc2nccc(-c3cnn4nc(-c5ccccc5)ccc34)n2)c1`, the GI50 in the test with 786-0 renal was 5.22 µM; in the test with MDA-MB-435, 10.4 µM; in the test on SK-MEL-5 melanoma it was 14.7 µM; with IGROV1 ovarian, 11.4 µM; with K-562 leukemia, above 16.3 µM; in the test on HT29 colon, 6.88 µM. Further, the GI50 was 4.63 µM in the test with RXF 393 renal, 23.5 µM with HCC-2998 colon, 5.24 µM in the test with OVCAR-3 ovarian and above 16.6 µM in the test on SF-295 CNS. Further, the TGI in the test with 786-0 renal was 11.2 µM; in the test with MDA-MB-435, above 25 µM; in the test on SK-MEL-5 melanoma it was above 25 µM; with IGROV1 ovarian, above 25 µM; with K-562 leukemia, above 25 µM; with HT29 colon it was above 18.4 µM. For the same molecule, the TGI was 10 µM with RXF 393 renal, above 25 µM in the test with HCC-2998 colon, 11 µM with OVCAR-3 ovarian and above 25 µM in the test on SF-295 CNS.

With `COc1cc([N+](=O)[O-])cc2c3c(n(C)c12)[C@@]1(C)CCC2c4ccc(OCc5ccccc5)cc4CCC2C1C3` (stereo not given in full), the GI50 in the test with 786-0 renal is above 100 µM; in the test on MDA-MB-435, above 100 µM; in the test on SK-MEL-5 melanoma it was 78.9 µM; in the test on IGROV1 ovarian it was above 100 µM; in the test with K-562 leukemia it was 62.5 µM; with HT29 colon, 17.7 µM. The GI50 with RXF 393 renal is 40.8 µM; in the test on HCC-2998 colon, 47.9 µM; in the test on OVCAR-3 ovarian it was above 100 µM; in the test with SF-295 CNS, 35 µM. The TGI with 786-0 renal is above 100 µM; with MDA-MB-435, above 100 µM; with SK-MEL-5 melanoma, above 100 µM; with IGROV1 ovarian, above 100 µM; with K-562 leukemia it was above 100 µM; with HT29 colon, 42.8 µM. Also, the TGI in the test with RXF 393 renal, in the test with HCC-2998 colon, with OVCAR-3 ovarian and with SF-295 CNS was above 100 µM each time.

For the molecule `O=C1Nc2c(C(F)(F)F)cccc2[C@]1(c1ccc(O)cc1)c1ccc(OC(F)(F)F)cc1`, the GI50 was 13.2 µM with 786-0 renal; 13.6 µM in the test on MDA-MB-435; 11.9 µM in the test with SK-MEL-5 melanoma; 9.42 µM in the test on IGROV1 ovarian; 8.57 µM in the test with K-562 leukemia; 10.3 µM with HT29 colon. Besides, the GI50 with RXF 393 renal was 3.29 µM; in the test with HCC-2998 colon, 14 µM; in the test on OVCAR-3 ovarian, 3.95 µM; with SF-295 CNS it was 10 µM. Besides, the TGI was 28.1 µM in the test on 786-0 renal; 26.6 µM in the test with MDA-MB-435; 24.6 µM in the test on SK-MEL-5 melanoma; 23.4 µM in the test with IGROV1 ovarian; above 100 µM with K-562 leukemia; 28.9 µM with HT29 colon. The TGI in the test with RXF 393 renal stood at 15.5 µM; in the test with HCC-2998 colon, 29.8 µM; in the test on OVCAR-3 ovarian it was 16.3 µM; in the test on SF-295 CNS, 22.1 µM.

Take `Oc1ccc(CN2CCC(N3CCCCC3)CC2)c2cccnc12`: the GI50 with 786-0 renal is 19.3 µM; in the test with MDA-MB-435, 4.63 µM; with SK-MEL-5 melanoma, 15.8 µM; in the test with IGROV1 ovarian it was 23.4 µM; in the test with K-562 leukemia, 2.23 µM; in the test with HT29 colon, 93.7 µM. The GI50 is 11.7 µM in the test on RXF 393 renal, 64.2 µM in the test with HCC-2998 colon, 27.5 µM in the test on OVCAR-3 ovarian and 68.3 µM in the test with SF-295 CNS. Besides, the TGI was above 100 µM in the test on 786-0 renal; above 100 µM in the test on MDA-MB-435; 75.9 µM in the test on SK-MEL-5 melanoma; above 100 µM in the test with IGROV1 ovarian; above 100 µM with K-562 leukemia; above 100 µM with HT29 colon. In addition, the TGI with RXF 393 renal, in the test on HCC-2998 colon, in the test on OVCAR-3 ovarian and in the test with SF-295 CNS was above 100 µM each time.

For `CCN(CC)CCOc1ccc(/C(=C(\Cl)c2ccccc2)c2ccccc2)cc1`, the GI50 was 0.94 µM and 1.7 µM in the test on 786-0 renal; 1.54 µM and 2.2 µM with MDA-MB-435; 0.808 µM and 1.55 µM with SK-MEL-5 melanoma; 4.83 µM and 3.04 µM in the test with IGROV1 ovarian; 1.55 µM in the test on K-562 leukemia; 0.944 µM and 0.353 µM in the test on HT29 colon. For the same molecule, the GI50 is 0.955 µM and 1.49 µM in the test on RXF 393 renal; 2 µM and 2.4 µM with HCC-2998 colon; 5.24 µM and 3.42 µM in the test on OVCAR-3 ovarian; 1.06 µM and 1.87 µM with SF-295 CNS. Besides, the TGI is 1.81 µM and 3.17 µM in the test with 786-0 renal; 5.78 µM and 7.08 µM in the test with MDA-MB-435; 1.5 µM and 2.88 µM in the test on SK-MEL-5 melanoma; 12.8 µM and 14.1 µM in the test with IGROV1 ovarian; 11.5 µM with K-562 leukemia; 2.21 µM and 1.38 µM in the test with HT29 colon. The TGI with RXF 393 renal was 2.46 µM and 3.03 µM; with HCC-2998 colon, 7.35 µM and 6.41 µM; with OVCAR-3 ovarian, 11.4 µM and 15.7 µM; in the test with SF-295 CNS, 2.54 µM and 4.02 µM.

In the case of `C=C1C(=O)O[C@H]2[C@H]1CC/C(COC(=O)c1ccc3ccccc3c1)=C\CC[C@@]1(C)O[C@@H]21`, the GI50 in the test on 786-0 renal is 1.18 µM; with MDA-MB-435 it was 1.1 µM; in the test with SK-MEL-5 melanoma it was 1.63 µM; with IGROV1 ovarian, 0.703 µM; in the test on K-562 leukemia, 0.39 µM; in the test with HT29 colon it was 0.438 µM. Besides, the GI50 in the test on RXF 393 renal is 0.286 µM; in the test on HCC-2998 colon it was 1.75 µM; in the test on OVCAR-3 ovarian it was 0.538 µM; in the test on SF-295 CNS, 1.54 µM. For the same molecule, the TGI was 2.65 µM in the test with 786-0 renal; 2.45 µM in the test with MDA-MB-435; 3 µM with SK-MEL-5 melanoma; 2.19 µM with IGROV1 ovarian; 5.47 µM with K-562 leukemia; 1.65 µM with HT29 colon. The TGI was found to be 1.48 µM with RXF 393 renal, 3.36 µM in the test on HCC-2998 colon, 1.77 µM in the test with OVCAR-3 ovarian and 3.06 µM in the test with SF-295 CNS.

For `C=C1C(=O)O[C@H]2[C@H]1CC/C(Cn1cc(-c3ccc(OC)cc3)nn1)=C\CC[C@@]1(C)O[C@@H]21`, the GI50 with 786-0 renal was 1.24 µM; in the test with MDA-MB-435, 1.14 µM; in the test on SK-MEL-5 melanoma it was 2.1 µM; in the test on IGROV1 ovarian, 1.35 µM; in the test on K-562 leukemia, 1.3 µM; in the test on HT29 colon, 1.23 µM. The GI50 is 0.703 µM with RXF 393 renal, 1.98 µM in the test with HCC-2998 colon, 0.569 µM in the test on OVCAR-3 ovarian and 11 µM in the test on SF-295 CNS. Also, the TGI is 2.65 µM in the test on 786-0 renal; 3.24 µM in the test with MDA-MB-435; 4.69 µM in the test with SK-MEL-5 melanoma; 3.27 µM with IGROV1 ovarian; 6.87 µM with K-562 leukemia; 2.86 µM in the test on HT29 colon. In addition, the TGI with RXF 393 renal turned out to be 2.02 µM; in the test with HCC-2998 colon it was 3.64 µM; with OVCAR-3 ovarian, 1.8 µM; with SF-295 CNS, 23.7 µM.

For `COc1ccc(/C=C/c2nccc3ccccc23)cc1OC`, the TGI with 786-0 renal, in the test on MDA-MB-435, in the test on SK-MEL-5 melanoma, in the test with IGROV1 ovarian, in the test on K-562 leukemia and in the test with HT29 colon was above 10 µM throughout. Also, the TGI in the test with RXF 393 renal, with HCC-2998 colon, in the test with OVCAR-3 ovarian and in the test on SF-295 CNS was above 10 µM each time.
